Laboratory results taken from patent US20210147381A1, “1,2,3,4-SUBSTITUTED QUINOLINE COMPOUNDS AS SIP MODULATORS” (AbbVie Deutschland GmbH & Co. KG, priority 2017, published 2021).
Where a name gives a salt, the structure may show the parent alone.

Experiments:
Format in all cases: cell-based
[1] = target: T1, human S1P5 receptor (S1PR5) (Homo sapiens, UniProt Q9H228); assay: Intracellular Ca2+ release (method 1), agonist potency and efficacy, S1P5; details: for Emax: maximum effect in % of reference agonist phospho-fingolimod (100%), read-out: hS1P5 EMax; for EC50: recombinant CHO-K1 cells expressing human S1PR5, aequorin, Gq/i5, Ca2+ release, read-out: S1P5 EC50 range
T1 construct: host or cells: CHO-K1
Outline: (§1)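 CHO-K1 cells co-expressing the human S1P receptor, aequorin and Gq/i5 were loaded with Calcium 5 dye (1 h, 37° C), then equilibrated 45 min at RT in HBSS/20 mM Hepes/2.5 mM probenecid/0.1% BSA, pH 7.4. Fluorescence upon serially diluted compound fitted by 4-parameter logistic; EC50 and Emax normalized to phospho-fingolimod (100%).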

[2] = target: T2, human S1P3 receptor (S1PR3) (Homo sapiens, UniProt Q99500); assay: Intracellular Ca2+ release (method 1), agonist potency, S1P3; details: CHO-K1 cells expressing human S1PR3
T2 construct: host or cells: CHO-K1
Procedure: Agonistic activity and efficacy of compounds was assessed in recombinant cells using method 1 described below.
Agonist potency and efficacy were assessed by measurement of intracellular Ca^2+ release. Recombinant CHO-K1 cells (Euroscreen, Brussels, Belgium) expressing human S1PR5, S1PR1, S1PR3 or S1PR4 receptors, aequorin, and GTP binding protein Gq/i5 were cultured using a medium containing nutrient mixture F-12 Ham (Sigma-Aldrich) with 10% FBS, and 100 μg/mL gentamicin and equilibrated at 5% CO2.
15,000 cells in 20 μL medium were seeded into Biocoat poly-D-Lysine coated 384 well plates (Becton Dickinson #35-6663) and grown to 95% confluency after 24 h.
Culture medium was replaced by an assay buffer consisting of HBBS with Ca^2+ and Mg^2+ (Invitrogen #14025-050), 20 mmol/L Hepes (Sigma-Aldrich #H-3375), 2.5 mmol/L probenecid (Sigma-Aldrich #P-8761, and 0.1% BSA (Sigma-Aldrich #A-7030) pH 7.4. The Calcium 5 no-wash FLIPR assay kit (Molecular Devices #5000625) was performed as described in the kit instructions. Cells were incubated with Calcium 5 dye for 1 h at 37° C., 5% CO2 in the dark. After 45 min adaptation to RT assessment of agonist stimulation of intracellular Ca^2+ release was performed by addition of test compounds at various concentrations obtained by serial dilution. Phospho-fingolimod was used as positive control and reference agonist (intrinsic activity 100%).
Agonism of test compounds at the human S1Px receptors were characterized by the EC50 values (potencies) deduced from a nonlinear 4 parametric logistic curve fit to the measured fluorescence data after normalization to the lower and upper plateaus of the fitted reference agonist's (phospho-fingolimod)effect curve and by their efficacy (Emax) values represented by their maximum achievable effects in % of the reference agonist's efficacy, which is defined as an Emax of 100%.

[3] = target: T3, human S1P4 receptor (S1PR4) (Homo sapiens, UniProt O95977); assay: Intracellular Ca2+ release (method 1), agonist potency, S1P4; details: CHO-K1 cells expressing human S1PR4
T3 construct: host or cells: CHO-K1
T3 sequence (O95977 1-384): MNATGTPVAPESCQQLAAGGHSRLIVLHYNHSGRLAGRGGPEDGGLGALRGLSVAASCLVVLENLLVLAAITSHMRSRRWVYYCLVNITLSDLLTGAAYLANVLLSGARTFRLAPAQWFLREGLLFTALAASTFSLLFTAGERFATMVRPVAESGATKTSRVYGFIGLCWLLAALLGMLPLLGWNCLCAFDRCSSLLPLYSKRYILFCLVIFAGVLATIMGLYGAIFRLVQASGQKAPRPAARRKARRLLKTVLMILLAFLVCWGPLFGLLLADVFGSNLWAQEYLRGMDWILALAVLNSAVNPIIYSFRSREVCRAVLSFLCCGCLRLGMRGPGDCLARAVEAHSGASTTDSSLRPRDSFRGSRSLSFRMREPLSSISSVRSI
Outline: as §1

[4] = target: T4, human S1P1 receptor (S1PR1) (Homo sapiens, UniProt P21453); assay: Intracellular Ca2+ release (method 1), agonist potency, S1P1; details: CHO-K1 cells expressing human S1PR1
T4 construct: host or cells: CHO-K1
Outline: as §1

T2 sequence (Q99500 whole entry): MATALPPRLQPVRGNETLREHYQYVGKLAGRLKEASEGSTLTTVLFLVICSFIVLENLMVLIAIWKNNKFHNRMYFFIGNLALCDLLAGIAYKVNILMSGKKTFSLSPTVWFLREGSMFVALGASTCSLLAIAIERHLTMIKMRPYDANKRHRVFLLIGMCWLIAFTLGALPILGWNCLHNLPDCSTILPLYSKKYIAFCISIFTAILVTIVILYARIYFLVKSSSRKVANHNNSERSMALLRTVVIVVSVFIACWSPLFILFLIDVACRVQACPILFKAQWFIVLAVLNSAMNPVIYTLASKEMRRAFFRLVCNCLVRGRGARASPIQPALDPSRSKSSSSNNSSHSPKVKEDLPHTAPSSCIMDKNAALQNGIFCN
T4 sequence (P21453 whole entry): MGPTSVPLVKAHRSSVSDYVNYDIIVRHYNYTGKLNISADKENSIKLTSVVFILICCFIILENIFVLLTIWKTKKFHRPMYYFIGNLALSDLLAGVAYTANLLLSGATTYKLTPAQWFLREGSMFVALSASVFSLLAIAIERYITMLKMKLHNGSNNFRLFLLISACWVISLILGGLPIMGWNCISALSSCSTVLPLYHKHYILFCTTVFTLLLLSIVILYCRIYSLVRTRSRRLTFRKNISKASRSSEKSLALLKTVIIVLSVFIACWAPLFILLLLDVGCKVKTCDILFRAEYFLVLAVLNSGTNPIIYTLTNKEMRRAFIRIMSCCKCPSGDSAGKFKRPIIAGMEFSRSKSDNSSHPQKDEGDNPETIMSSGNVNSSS
T1 sequence (Q9H228 whole entry): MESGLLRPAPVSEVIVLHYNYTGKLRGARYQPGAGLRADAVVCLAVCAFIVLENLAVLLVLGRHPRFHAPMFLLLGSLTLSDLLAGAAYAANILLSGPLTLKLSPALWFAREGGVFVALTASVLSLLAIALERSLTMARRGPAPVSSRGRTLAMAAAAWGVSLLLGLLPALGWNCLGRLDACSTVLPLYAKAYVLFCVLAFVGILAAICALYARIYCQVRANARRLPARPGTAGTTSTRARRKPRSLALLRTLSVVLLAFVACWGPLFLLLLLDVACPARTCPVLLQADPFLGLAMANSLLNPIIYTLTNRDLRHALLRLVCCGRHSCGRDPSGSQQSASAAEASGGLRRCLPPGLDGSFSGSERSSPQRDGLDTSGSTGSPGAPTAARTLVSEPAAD

| Structure (SMILES) | Emax [1] | EC50 [1] | EC50 [2] | EC50 [3] | EC50 ([4]; cells given as bound) | EC50 ([3]; cells given as bound) | EC50 [4] |
| --- | --- | --- | --- | --- | --- | --- | --- |
| O=C(O)CCCN1Cc2ccc(OCc3cccc(F)c3F)cc2C2(CC2)C1 [Compound 21, 4-(6′-((2,3-Difluorobenzyl)oxy)-1′H-spiro[cyclopropane-1,4′-isoquinolin]-2′(3′H)-yl)butanoic acid] | < 50% | 10 to 100 nM | > 1000 nM | 100 to 1000 nM | > 1000 nM |  |  |
| O=C(O)CCN1Cc2ccc(C#Cc3ccc(F)cc3)cc2C2(CC2)C1 [Compound 41, 3-(6′-((4-fluorophenyl)ethynyl)-1′H-spiro[cyclopropane-1,4′-isoquinolin]-2′(3′H)-yl)propanoic acid acetic acid salt (1:1)] | < 50% | 1000 to 10000 nM | > 1000 nM |  | > 1000 nM | > 1000 nM |  |
| O=C(O)CCN1Cc2ccc(C#Cc3cccc(Cl)n3)cc2C2(CC2)C1 [Compound 40, 3-(6′-((6-chloropyridin-2-yl)ethynyl)-1′H-spiro[cyclopropane-1,4′-isoquinolin]-2′(3′H)-yl)propanoic acid acetic acid salt (1:1)] | 50 to 100% | 100 to 1000 nM | > 1000 nM | 100 to 1000 nM | > 1000 nM |  |  |
| O=C(O)CCCN1Cc2ccc(OCc3ccc(Cl)c(Cl)c3)cc2C2(CC2)C1 [Compound 26, 4-(6′-((3,4-Dichlorobenzyl)oxy)-1′H-spiro[cyclopropane-1,4′-isoquinolin]-2′(3′H)-yl)butanoic acid] | 50 to 100% | 10 to 100 nM | > 1000 nM | 10 to 100 nM | > 1000 nM |  |  |
| CC(C)c1ccc(C#Cc2ccc3c(c2)C2(CC2)CN(CCCC(=O)O)C3)cc1 [Compound 1, 2′-(3-carboxypropyl)-6′-((4-isopropylphenyl)ethynyl)-2′,3′-dihydro-1′H-spiro[cyclopropane-1,4′-isoquinolin]-2′-ium 2,2,2-trifluoroacetate] | 50 to 100% | < 10 nM | > 1000 nM |  |  | > 1000 nM | 100 to 1000 nM |
| O=C(O)CCCN1Cc2ccc(OCc3ccccc3OC(F)(F)F)cc2C2(CC2)C1 [Compound 14, 4-(6′-((2-(Trifluoromethoxy)benzyl)oxy)-1′H-spiro[cyclopropane-1,4′-isoquinolin]-2′(3′H)-yl)butanoic acid] | 50 to 100% | < 10 nM | > 1000 nM | 100 to 1000 nM | > 1000 nM |  |  |

Now from value to compound:

| Emax [1] | EC50 [1] | EC50 [2] | EC50 [3] | EC50 ([4]; cells given as bound) | EC50 ([3]; cells given as bound) | EC50 [4] | Structure (SMILES) |
| --- | --- | --- | --- | --- | --- | --- | --- |
| 50 to 100% | < 10 nM | > 1000 nM | 100 to 1000 nM | > 1000 nM |  |  | O=C(O)CCN1Cc2ccc(C#Cc3cc(F)cc(F)c3)cc2C2(CC2)C1 [Compound 32, 3-(6′-((3,5-difluorophenyl)ethynyl)-1′H-spiro[cyclopropane-1,4′-isoquinolin]-2′(3′H)-yl)propanoic acid acetic acid salt (1:1)] |
| > 100% | < 10 nM | > 1000 nM | < 10 nM | > 1000 nM |  |  | CCc1cccc(Cl)c1COc1ccc2c(c1)C1(CC1)CN(CCCC(=O)O)C2 [Compound 27, 4-(6′-((2-Chloro-6-ethylbenzyl)oxy)-1′H-spiro[cyclopropane-1,4′-isoquinolin]-2′(3′H)-yl)butanoic acid] |
| 50 to 100% | < 10 nM | > 1000 nM | 100 to 1000 nM | > 1000 nM |  |  | Cc1ccccc1COc1ccc2c(c1)C1(CC1)CN(CCCC(=O)O)C2 [Compound 22, 4-(6′-((2-Methylbenzyl)oxy)-1′H-spiro[cyclopropane-1,4′-isoquinolin]-2′(3′H)-yl)butanoic acid] |
| > 100% | < 10 nM | > 1000 nM | 10 to 100 nM | > 1000 nM |  |  | O=C(O)CCN1Cc2ccc(C#Cc3cccc(F)c3F)cc2C2(CC2)C1 [Compound 10, 3-(6′-((2,3-Difluorophenyl)ethynyl)-1′H-spiro[cyclopropane-1,4′-isoquinolin]-2′(3′H)-yl)propanoic acid] |
| 50 to 100% | < 10 nM | > 1000 nM | 100 to 1000 nM | > 1000 nM |  |  | O=C(O)CCCN1Cc2ccc(OCc3ccccc3Cl)cc2C2(CC2)C1 [Compound 25, 4-(6′-((2-Chlorobenzyl)oxy)-1′H-spiro[cyclopropane-1,4′-isoquinolin]-2′(3′H)-yl)butanoic acid] |
| 50 to 100% | < 10 nM | > 1000 nM |  | > 1000 nM | > 1000 nM |  | CCOc1ccc(C#Cc2ccc3c(c2)C2(CC2)CN(CCCC(=O)O)C3)cc1F [Compound 45, 4-(6′-((4-ethoxy-3-fluorophenyl)ethynyl)-1′H-spiro[cyclopropane-1,4′-isoquinolin]-2′(3′H)-yl)butanoic acid] |
